Tests used:
[1] = system: human THP-1 monocytic cell line; test: LPS-induced inflammation-related signal transduction in THP-1 cells, immunoblotting; type: cell-based; details: THP-1 cultured 3 hours with compound, then LPS 1 μg/ml 1 hour; FIG. 2A-B
Description: Each of BMDA (FMJ-G0) or DMMA (FMJ-G4) was added to a culture medium at concentrations of […], and 1 μM in a 6-well plate. The human THP-1 monocytic cell line (5×10^5 cells/well) was cultured therein for 3 hours. Each well was treated with lipopolysaccharide at a concentration of 1 μg/ml. After 1 hour, centrifugation was performed to obtain a supernatant which was used in an ELISA for inflammatory cytokine evaluation. Cell lysate was added to the collected THP-1 cells for immunoblotting.

male SD rats = test: DNBS-induced colitis model, enema administration; type: in vivo, rat; details: for inflammatory response caused by DNBS / length of the large intestine (colon) / ulcer scab: 500 μL of 200 μg/mL through the anus for 5 days; for inflammatory response caused by DNBS: FIG. 3A-B; for production amount of CNIC-3 chemokine: ELISA of colon supernatant, FIG. 3E; for body weight lost due to the DNBS treatment: FIG. 3C; for length of the large intestine (colon) / ulcer scab: vs DNBS+PBS group; for macrophage peroxidase (MPO) activity in colon: vs DNBS+PBS-treated rat, FIG. 3D
Description: For experimental colitis, male SD rats (250 to 260 g) were fasted one day before developing colitis. A water bottle was prepared so that only water could be consumed by the rats. Then, after anesthesia of the rats, a rubber cannula is inserted into the anus, and a solution in which 48.0 mg DNBS was dissolved in 0.4 mL of 50% alcohol was injected thereto through the cannula. This process was repeated for 3 days.
From the 4th day since the DNBS was inserted, anesthesia of the rats was carried out, and then BMDA (FMJ-G0) and a derivative thereof (DMMA, FMJ-G4) were diluted with PBS, and then 500 μL of the diluted substance was injected at a concentration of 200 μg/mL thereto through the anus. This process was repeated for 5 days. In a control group, DMSO was diluted in PBS at the same concentration and then was injected in the same way for 5 days. Thereafter, on day 6, the rats were suffocated, and the large intestine was removed therefrom to evaluate a level of colitis according to a known method.
Moreover, a portion of the large intestine was removed, placed in a cell lysis buffer (20 mM Tris-HCl [pH 7.5], 150 mM NaCl, 1 mM EDTA, 1% Triton X-100, 0.5% SDS), and subjected to ultrasonic treatment. Centrifugation was carried out to collect only the supernatant. We quantified the protein, and performed immunoblotting thereon.
Further, a portion of the supernatant obtained after the centrifugation as prepared for immunoblotting was used to measure the amount of the chemokine CINC-3 (Cytokine-induced neutrophil chemoattractant) based on ELISA. Moreover, in order to measure the level of activity of macrophages infiltrated into the distal colon, a titer of MPO (Myeloperoxidase) was measured. The distal colon was pulverized in a supersonic pulverizing device, was centrifuged to obtain the supernatant. Then, hydrogen peroxide was added to the supernatant for decomposition. Change in absorbance was measured at 460 nm for 1 minute.

DBA/J1 male mice [2] = test: Rheumatoid arthritis model induced by type 2 bovine collagen, oral administration; type: in vivo, mouse; details: for inflammation and synovitis of joint tissues: H&E stained joint sections, FIG. 5A-B; for expression of HO-1 in the joints / expression of Nrf2 in the joints: immunoblotting, FIG. 6B; for length of the spleen / weight of the spleen / swelling of the feet / weight loss caused by rheumatism induced by collagen: oral 20 mg/body weight Kg for 21 days; for length of the spleen / weight of the spleen: vs control, FIG. 4C-D; for swelling of the feet: vs soybean oil control, FIG. 4A-B; for weight loss caused by rheumatism induced by collagen: FIG. 4B
Description: Rheumatoid arthritis was induced in 7-week-old DBA/J1 male mice. We thoroughly mixed the type 2 collagen at a concentration of 2 mg/mL with CFA (Complete Freund's Adjuvant) in the mixing ratio 1:1. We injected 0.1 mL (100 μg) of the mixture intradermally to a position away 2 cm from a base of the tail. After 2 weeks, we mixed the type 2 collagen with IFA instead of CFA in the mixing ratio 1:1. We administered the mixture subcutaneously to the base of the tail in the same amount and volume as those in the first injection. After 3 days, we grouped the mice into 4 groups and performed second administration thereto.
(§1) In one example, BMDA (FMJ-G0) and a derivative thereof (DMMA, FMJ-G4) at a concentration of 2.5 mg/mL were orally administered to male mice in a volume of 200 μL (20 mg/body weight Kg) for 21 days. In a control group, soybean oil was orally administered thereto.
(§2) During the experiment, the insteps of the forelimbs and hindlimbs were measured with a caliper three times a week, and the mice were suffocated, and joint areas were prepared for immunohistochemical staining and immunoblotting. Moreover, the spleen was removed therefrom and a size thereof was measured. Further, blood was drawn through the hepatic portal vein to prepare serum. A specific method was as follows. • 1) Paraffin sections were prepared as the joints including the ankles of the forelimbs. At this time, decalcification is performed first, followed by sectioning the same at a thickness of 4 μm, and H&E staining. • 2) The cell lysis solution was added thereto, and then we crushed the tissue with a sonicator, which was prepared for immunoblotting. • 3) Trisol solution was added to the joint tissue, the tissue was pulverized in a sonicator, and centrifuged, and the Trisol solution was used to precipitate proteins and DNA for entire RNA separation, and the entire RNA was collected from the supernatant obtained via the centrifugation. c-DNA was synthesized using oligo-dT primer and reverse transcriptase, and then, quantitative qRT-PCR and immunoblotting were performed thereon.

DBA/J1 male mice [3] = test: Serum AST and ALT activity (hepatotoxicity indicators) in the collagen-induced rheumatoid arthritis model; type: in vivo, mouse; details: oral administration for 3 weeks; FIG. 7
Description: as §1, §2

SMILES | activity of JNK activated by LPS [1] | activity of p38 MAPK activated by LPS [1] | inflammation-related signaling pathway leading to p38 MAPK-MK2 [1] | inflammatory response caused by DNBS (male SD rats) | production amount of CNIC-3 chemokine (male SD rats) | body weight lost due to the DNBS treatment (male SD rats) | length of the large intestine (colon) (male SD rats) | ulcer scab (male SD rats) | macrophage peroxidase (MPO) activity in colon (male SD rats) | inflammation and synovitis of joint tissues (DBA/J1 male mice [2]) | expression of HO-1 in the joints (DBA/J1 male mice [2]) | expression of Nrf2 in the joints (DBA/J1 male mice [2]) | length of the spleen (DBA/J1 male mice [2]) | weight of the spleen (DBA/J1 male mice [2]) | swelling of the feet (DBA/J1 male mice [2]) | weight loss caused by rheumatism induced by collagen (DBA/J1 male mice [2]) | activity of ALT enzyme in serum (DBA/J1 male mice [3]) | activity of AST enzyme in serum (DBA/J1 male mice [3])
CCCCCCCCCCN(C)Cc1ccc(OC)cc1 [DMMA, Decyl-(4-methoxy-benzyl)-methyl-amine] | suppressed | suppressed | inhibited | significantly reduced | low | did not restore | larger than that of the DNBS+PBS-treated rat group | reduced | much lower | significantly reduced | increased | increased | reduced | reduced | much smaller | did not restore | did not increase | did not increase
CCCCCCCCCCN(C)Cc1ccccc1 [BMDA, N-benzyl-N-methyldecan-1-amine] | suppressed | suppressed | inhibited | significantly reduced | low | did not restore | no significant difference | much smaller | much lower | significantly reduced | increased | increased | reduced | reduced | much smaller | did not restore | did not increase | did not increase

— patent publication US20240041796A1, “ANTI-INFLAMMATORY COMPOSITION COMPRISING N-BENZYL-N-METHYLDECAN-1-AMINE OR A DERIVATIVE THEREOF AS AN ACTIVE INGREDIENT” (PUSAN NATIONAL UNIVERSITY INDUSTRY-UNIVERSITY COOPERATION …, priority 2022, published 2024)
